From a melting point compilation (Tetko et al.; mined from patent text by program, amines drawn as free bases though some values may be those of a salt)

Point of comparison: `CCCCCCCOc1ccc(-c2ccc(OCC(C)CC)nn2)cc1` (centres undefined), melting point 91 °C. Against it:
- Cc1nc2c3c(ccc2n1C)C(=O)C(OC(=O)C(C)(C)C)C(c1ccccc1)O3 (centres undefined) — higher, 255 °C
- NC(=O)C(OCC1c2ccccc2-c2ccccc21)c1ccc(C(=O)O)cc1 (centres undefined) — higher, 232 to 235 °C
- Cn1nnn(-c2c(Cl)ccc(C(=O)O)c2Cl)c1=O — higher, 221 to 225 °C
- CCOC(=O)/C=C(/c1ccc(CC)cc1)c1cc(Cl)cc(Cl)c1 — lower, 73 to 75 °C
- O=Cc1cc([N+](=O)[O-])ccc1Br — lower, 86 to 88 °C
- NCCSc1nc(-c2ccccc2)c(-c2ccccc2)[nH]1 — higher, 152 to 154 °C
- O=S(=O)(c1ccc(-c2ccc(C3COC(c4c(F)cccc4F)=N3)cc2)cc1)C(F)F (centres undefined) — higher, 107 to 111 °C
- CNC1(C)CN(c2c(F)cc3c(=O)c(C(=O)O)cn(C4CC4)c3c2F)C1 — higher, > 300 °C
- COc1ccc(N2CCN(c3c(C)c4c(c(OC)c3C)OC(C)C4)CC2)cc1 (centres undefined) — higher, 109 to 111 °C
- Nc1cc(=O)n(Cc2ccccc2[N+](=O)[O-])[nH]1 — higher, 190 °C
- C/C(=C\CCl)n1ncc(-c2ccc(S(N)(=O)=O)cc2)c(-c2ccc(F)cc2)c1=O — higher, 152 to 154 °C
- N#Cc1cccc(C2=Nc3ccc(C4CC4)cc3NC(=O)C2)c1 — higher, 204 to 209 °C
- Cc1ccc2c(c1)[C@H](Nc1nc(NC=O)nc(C(F)F)n1)[C@@H](C)C2 — lower, 66 °C
- Cc1c(CC=CCCC(=O)O)cccc1C(=O)c1ccc(Cl)cc1 — lower, 73 °C
- CCOC(=O)c1c(C(F)(F)F)nc(C(F)F)c(CO)c1CC — lower, 59.5 to 60.5 °C
- COc1cccc(Cn2c(=O)[nH]c3cc(Cl)cc(Cl)c3c2=O)c1 — higher, 216 to 220 °C
- Nc1cc(-n2cc(C(=O)O)c(=O)c3c(O)c(F)c(F)cc32)c(F)cc1F — higher, > 270 °C
- c1ccc2cc(-c3ccc(-c4nc(-c5ccc(-c6ccc7ccccc7c6)cc5)n(-c5cccc6ccccc56)n4)cc3)ccc2c1 — higher, > 250 °C
- CC(=O)N[C@@H](CSC(C)=O)C(=O)NCCSC(=O)C(C)C — higher, 115 to 117 °C
- CC(C)(C)OC(=O)NCC1CCN(Cc2ccccc2)C1 (centres undefined) — lower, 51 to 54 °C
- CCOC(=O)CC1=NCC(c2cccc(OCc3ccc4ccccc4n3)c2)O1 (centres undefined) — higher, 94 to 95 °C
- Cc1ccc(NC(=O)c2cc(Cl)ccc2NCC2CCN(C3CCCCC3)CC2)nc1 — higher, 176 to 178 °C
- Cc1ccnn1-c1ccc(Cl)c(Cl)c1 — lower, 46 to 47 °C
- COC(CNC(=O)c1ccc(C(=O)N2CCN(c3ncccc3NC(C)C)CC2)nc1)OC — higher, 167 to 169 °C
- COc1cc(C(C#Cc2cnc(N)nc2N)OC)cc(OC)c1OC (centres undefined) — higher, 184 to 186 °C
- CC(C)(C)c1cc(C(c2ccc(C(F)(F)F)cc2)N2CCCCC2)c(O)c(C(C)(C)C)c1 (centres undefined) — higher, 150 to 152 °C
- Cc1ncccc1-c1nc(C(F)(F)F)cn1-c1ccc(S(C)(=O)=O)cc1 — higher, 160 to 161 °C
- CN1CCN(c2ccc(N)cc2C#N)CC1 — lower, 45 to 46 °C
- Cc1ccccc1C(=O)N[C@@H](CC(C)C)C(=O)N[C@@H](C(C)C)[C@@H](O)c1c(-c2ccccc2)c1=O — higher, 101 to 105 °C
- CCOC(=O)CCNC(=O)Nc1cc(-c2ccc3cc(NS(C)(=O)=O)ccc3c2)c(OC)c(C(C)(C)C)c1 — higher, > 300 °C
- Cn1ccnc1-c1ccc(O)cc1 — higher, 239 to 242 °C
- O=C(O)CCCCCC(c1cc(F)ccc1F)S(=O)(=O)c1ccc(Cl)cc1 (centres undefined) — lower, 72 to 76 °C
- O=C(O)Cc1cc(F)ccc1Sc1ccccc1 — lower, 80 to 83 °C
- CC1(c2ccccc2)OC(C(=O)O)Oc2ccc(Cl)cc21 (centres undefined) — higher, 144 °C
- C=C[C@@H](C[C@H](O)[C@H](CC1CCCCC1)NC(=O)[C@H](Cc1c[nH]cn1)NC(=O)[C@@H](CC(=O)NN)Cc1ccccc1)C(C)C — higher, 109 °C
- COc1c(OCCn2c([N+](=O)[O-])cnc2C)cnc(CNc2nc(C)nc(C)c2Cl)c1C — higher, 182 to 184 °C
- Cc1ccc(C)n1-c1cc(Br)c2ccc3[nH]c(=O)c(=O)[nH]c3c2c1 — higher, > 270 °C
- CC(C)NC(=O)CC(CC1(C(=O)N[C@H]2CCc3ccccc3N(CC(=O)O)C2=O)CCCC1)C(=O)O (some centres undefined) — higher, 145 °C
- Cn1cc(-c2cccc(N3CCc4c(cc5n4CCCC5)C3=O)c2CO)cc(Nc2ccc(C3CNC3)cn2)c1=O — higher, 227 to 229 °C
- Cn1ncc(C(=O)N2CCCC2)c1C(=O)Nc1ccn2nc(N3CCOCC3)nc2c1 — higher, 210 to 212 °C
- CCOC(=O)C1=C(C)NC(C)=C(/C=C/S(=O)(=O)NC(C)C)C1Cc1cccc([N+](=O)[O-])c1 (centres undefined) — higher, 191 to 193 °C
- CCOC(=O)c1nc[nH]c1-c1ccccc1 — higher, 203 to 205 °C
- CCOC(=O)c1cn(-c2cccc(Oc3ccc(Cl)cc3)c2)cn1 — higher, 112 to 113 °C
- Cc1cc(C)cc(-c2nc(NC(=O)c3ccncc3)sc2-c2ccncc2)c1 — higher, 302 to 304 °C
- CC(C)Oc1ccc(CCCOc2ncccc2CC(=O)O)c(Oc2ncc(Cl)cc2Cl)c1 — lower, 84 to 85 °C
- O=[N+]([O-])c1ccc(Cl)c(N=Cc2ccccc2O)c1 — higher, 168 to 169 °C
- COc1ccc2c(c1)c(CC(=O)OCC(=O)N(C)CCO[N+](=O)[O-])c(C)n2C(=O)c1ccc(Cl)cc1 — higher, 118 to 122 °C
- Cc1cc(C(=O)CS(C)(=O)=O)cc(C)c1N(C)C — higher, 132 to 133 °C
- OC(C#CCN1CCC(O)(c2ccc(Cl)cc2)CC1)c1ccc(F)cc1 (centres undefined) — higher, 145 to 146 °C
- O=[N+]([O-])c1ccc(OCc2cccc(F)c2)cc1 — higher, 104 to 105 °C
- O=C(O)CCC(=O)c1cccc(C(F)(F)F)c1 — lower, 80 to 82 °C
- N#Cc1nnc2n1-c1ccc(Cl)cc1C(c1ccccc1)=NC2 — higher, 191 to 192 °C
- O=C(O)c1ccccc1NCCC=C1c2ccccc2CCc2ccccc21 — higher, 164 to 167 °C
- C=CCOc1ccc(-c2ccc(Cl)nn2)c(OCC(O)CNC(C)(C)C)c1 (centres undefined) — higher, 93 to 94 °C
- CCCCCCCCCCCCCCCCc1nc(N(C)C)nc(C)c1O — lower, 86 to 87 °C
- Cc1nc(-c2cccnc2)sc1-c1ccnc(Nc2cc(Cl)c(N3CCOCC3)c(Cl)c2)n1 — higher, 276 to 278 °C
- CN(C(CCn1c(=O)cc(C(F)(F)F)[nH]c1=O)C(=O)NO)S(=O)(=O)c1ccc(Oc2ccc(Cl)cc2)cc1 (centres undefined) — higher, 173 to 174 °C
- S=C1Nc2ccc(Cl)cc2Nc2ccccc21 — higher, 274 to 275 °C
- Cc1cc(Cl)ccc1-n1c(CF)nc2ccc(N)cc2c1=O — higher, 191 to 193 °C
- CN1C(=O)CC(c2ccccc2)C1C(O)C=Cc1ccc(F)cc1 (centres undefined) — higher, 189 to 191 °C
- CCOC(=O)c1cnn(-c2ccc(Cl)cc2Cl)c1C#N — lower, 79 to 81 °C
- CC(C)(C)C(NC(=O)c1ccc(Cl)cc1)NC(=NC#N)Nc1cc(F)ccc1F (centres undefined) — higher, 196 to 198 °C
- CC(C)(C)c1cc(C2CCC3SC2CCC3c2cc(C(C)(C)C)c(O)c(C(C)(C)C)c2)cc(C(C)(C)C)c1O (centres undefined) — higher, 247 to 250 °C
- Cn1cc(-c2ccncn2)ccc1=O — higher, 147 to 149 °C
- Cc1ccc(C(O)CN2CCNC2=S)cc1 (centres undefined) — higher, 123 °C
- COc1ccc(C(=CC(=O)O)c2ccc(-c3ccccc3)cc2)cc1OC — higher, 178 to 184 °C
- O=C(NC1CCS(=O)(=O)CC1)NC12CC3CC(CC(C3)C1)C2 — higher, 244 to 246 °C
- Cc1cc(C)c2ncc(C(=O)O)c(-c3ccccc3Cl)c2c1 — higher, 234 to 235 °C
- CCOC(=O)c1cnc2c(NC(=O)c3c(Cl)cccc3Cl)cccc2c1SCC(=O)O — higher, 174 to 175 °C
- CNCC1=NN=C(c2ccc([N+](=O)[O-])cc2)c2cc3c(cc2C1)OCO3 — higher, 110 to 112 °C
- CCC(C)(Cc1c[nH]c2ccc(F)cc12)[N+](=O)[O-] (centres undefined) — lower, 71 to 72 °C
- C=CCOc1cccc(C2=NNC(=O)CC2)c1 — higher, 111 to 113 °C
- N#CCC1CC(c2ccccc2)=NO1 (centres undefined) — lower, 79 to 80.5 °C
- CCOC(=O)C1Cc2cc3ccccc3n2C1 (centres undefined) — lower, 55 to 57 °C
- O=CCOc1cccc(C(=O)O)c1 — higher, 120 to 130 °C
- CC1=C(C)C(=O)C(C(C)c2ccc(CC(=O)O)cc2)=C(C)C1=O (centres undefined) — higher, 142 to 143 °C
- N#CCOc1cc2c(cc1C#Cc1ccccc1)NC(=O)CC(c1cccc(C#N)c1)=N2 — higher, 212 °C
- Clc1ccc2c(c1)C=C(Cn1ccnc1)c1ccsc1S2 — higher, 154 to 156 °C
- CCC1(CC)C(=O)N(C(C)(C)CC(C)(C)C)CC(C)(C)N1OC(C)(C)C#N — lower, 49 to 53 °C
- O=S(=O)(OCC(F)(F)C(F)F)c1ccc2ccccc2c1 — lower, 89.6 °C
- CN(C)C(=O)C(CCO)C1CCc2c1[nH]c1ccccc21 (centres undefined) — higher, 118 to 120 °C
- OC(COc1ccc(-c2ccc(Br)cc2)cc1)CN1CCCC1 (centres undefined) — higher, 121 to 122 °C
- CCCCCCCCSC(=O)CS(=O)(=O)Nc1c(C(C)C)cccc1C(C)C — lower, 51 to 52 °C
- COC(=O)Cc1c(Cl)nc(C)nc1Nc1ccccc1 — higher, 115 to 116 °C
- O=Cc1coc2c(c1=O)CCc1ccccc1-2 — higher, 153 to 156 °C
- C(=C(c1ccccc1)c1ccccc1)c1ccccn1 — higher, 117 to 119 °C
- O=c1[nH]c2cc(Cl)cc(Cl)c2c(=O)n1Cc1cccc(F)c1 — higher, 267 to 270 °C
- Cc1cc2ncnc(N3CCc4ccc(Cl)cc43)c2cc1C — higher, 199 °C
- CC(=O)OC1CSC(Oc2cccc(I)c2)C(OC(C)=O)C1OC(C)=O (centres undefined) — higher, 127 °C
- O=S(=O)(Nc1ccccc1COc1cccc2cccnc12)c1cccc(C(F)(F)F)c1 — higher, 120 to 121 °C
- Cc1ccccc1CC(C(=O)Nc1cnc(Br)cn1)c1ccc(S(C)(=O)=O)cc1 (centres undefined) — higher, 194 to 195 °C
- Cc1ncc2c(=O)n(C)c(=O)n(C)c2n1 — higher, 113 to 115 °C
- CS(=O)(=O)N1CCCCc2nc(-c3ccncc3)sc21 — higher, 193 to 194 °C
- CCC1CCc2c(sc3cc(NC(C)=O)ccc3c2=O)C1 (centres undefined) — higher, 243 °C
- CCCNC(=O)c1nc2n(n1)-c1ccc(Cl)cc1C(c1ccccc1Cl)=NC2 — higher, 110 to 113 °C
- CCOC(=O)c1cccc2nc(C(C)C)n(Cc3ccc(-c4ccccc4-c4nnn[nH]4)cc3)c12 — higher, 144 to 146 °C
- CCOC(=O)c1c(CN(C)c2ccccc2)nc2cc(OC)c(OC)cc2c1-c1ccc(OC)c(OC)c1 — higher, 194 to 196 °C
- CCNC(=O)n1cc(F)c(NC(C)=O)nc1=O — higher, 233 to 235 °C
